In general, solubility refers to how much of the substance goes into solution per volume. Lower therefore signals little dissolved substance.

The values below come from patent publication US20090099319A1, “METHOD FOR SOLUBILISING HYDROPHOBIC ACTIVE SUBSTANCES IN AN AQUEOUS MEDIUM” (BASF SE, priority 2006, published 2009).

Values after ≈ are worked out from the molar mass of the structure shown.

The series in a line: physchem. To be noted: water, thermodynamic from solid.

Description: The excess solid was separated off by subsequently centrifuging the solutions twice at 15 000 rpm (20 minutes in each case), producing in all instances a clear, saturated solution of active substance. Subsequently the amount of the guest molecules complexed was determined by means of UV-VIS spectra, the reference sample used in each case being the respective aqueous polymer solution with the same concentration and the same preparation (likewise centrifuged). […] For all of the solubilization experiments evaluated in this way, the measurement error was ±5%.

`COCCOC(=O)C1=C(C)NC(C)=C(C(=O)OC(C)C)C1c1cccc([N+](=O)[O-])c1` (stereo not drawn) [nimodipine, 1,4-dihydro-2,6-dimethyl-4-(3′-nitrophenyl)pyridine 3-β-methoxyethyl ester 5-isopropyl ester]: the concentration in solution (solubility at 18 h) was 1.1 µg/mL (≈ 2.63 µM).
